Drawing on patent publication US8440710B2, “HSL inhibitors useful in the treatment of diabetes” (Hoffmann-La Roche Inc., priority 2009, dated 2013), this text covers IC50 for 27 compounds.

SMILES strings stand for the structures.

One may read the IC50 as the concentration that inhibits the measured activity by half.

The assay has as its target T1, human HSL (Homo sapiens, UniProt Q05469).
T1 construct: generate a full length human HSL ORF with a 3′-His6 tag; made in house; host or cells: High 5 insect cells (baculovirus, pFast-BAC)
T1 sequence (Q05469 1-1076): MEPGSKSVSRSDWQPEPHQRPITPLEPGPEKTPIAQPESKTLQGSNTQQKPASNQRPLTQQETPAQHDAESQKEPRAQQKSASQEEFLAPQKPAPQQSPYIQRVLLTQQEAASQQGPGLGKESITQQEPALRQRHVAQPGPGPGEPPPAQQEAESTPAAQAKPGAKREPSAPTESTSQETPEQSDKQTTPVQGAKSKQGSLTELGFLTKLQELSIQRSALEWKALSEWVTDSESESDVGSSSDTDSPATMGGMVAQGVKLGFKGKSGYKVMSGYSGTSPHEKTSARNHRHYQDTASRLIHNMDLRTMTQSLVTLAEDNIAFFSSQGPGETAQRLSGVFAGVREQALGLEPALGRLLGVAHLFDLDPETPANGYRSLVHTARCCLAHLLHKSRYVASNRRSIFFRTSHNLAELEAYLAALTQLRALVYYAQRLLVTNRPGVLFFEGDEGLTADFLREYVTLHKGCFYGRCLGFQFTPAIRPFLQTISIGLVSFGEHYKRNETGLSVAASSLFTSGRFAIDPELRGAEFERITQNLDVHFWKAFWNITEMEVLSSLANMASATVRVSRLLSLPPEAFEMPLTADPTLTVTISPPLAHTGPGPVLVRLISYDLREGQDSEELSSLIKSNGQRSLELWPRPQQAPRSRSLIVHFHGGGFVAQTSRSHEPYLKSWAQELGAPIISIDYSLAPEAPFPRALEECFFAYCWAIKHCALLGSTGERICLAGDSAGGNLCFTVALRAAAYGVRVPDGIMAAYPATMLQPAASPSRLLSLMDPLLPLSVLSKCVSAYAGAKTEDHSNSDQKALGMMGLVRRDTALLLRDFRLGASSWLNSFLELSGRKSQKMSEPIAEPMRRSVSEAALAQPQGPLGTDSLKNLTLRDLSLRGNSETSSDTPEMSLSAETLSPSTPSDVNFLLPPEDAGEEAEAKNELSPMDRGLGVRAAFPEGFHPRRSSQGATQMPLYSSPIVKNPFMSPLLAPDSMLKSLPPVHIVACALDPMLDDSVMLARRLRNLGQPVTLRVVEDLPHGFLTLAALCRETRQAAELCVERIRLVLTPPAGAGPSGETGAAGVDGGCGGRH
Put plainly: Human Hormone-Sensitive Lipase (HSL) enzyme inhibition assay (colorimetric, DMPT substrate). The class given is biochemical. Particulars: human full length HSL-His6, 2,3-dimercapto-1-propanol tributyrate substrate, 37° C. 20 minutes, absorbance at 405 nm; read-out: HSL hum IC50. In a few lines: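 Full-length human HSL with C-terminal His6, expressed in baculovirus-infected High 5 cells and Ni-NTA purified, was added (15 ug/ml stock) to 1.5 mM DMPT in 100 mM MOPS pH 7.2, 0.2 mg/ml fatty acid-free BSA containing compound. After 20 min at 37 °C, DTNB with SDS/Triton X-100 was added; A405 read after 15 min at RT.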
`O=C1N(c2ccc(OCC(F)(F)F)nc2)CC[C@]12CC[C@@](O)(COCC(F)F)CC2` [Example 295, (5α,8α)-8-(2,2-Difluoro-ethoxymethyl)-8-hydroxy-2-[6-(2,2,2-trifluoro-ethoxy)-pyridin-3-yl]-2-aza-spiro[4.5]decan-1-one]: the IC50 stood at 40 nM.
`COC[C@]1(O)CC[C@]2(CCN(c3ccc([C@@H](OC)C(F)(F)F)cc3)C2=O)CC1` [Example 139, (5α,8α)-8-Hydroxy-8-(methoxymethyl)-2-(4-((R)-2,2,2-trifluoro-1-methoxyethyl)phenyl)-2-aza-spiro[4.5]decan-1-one]: the IC50 is 40 nM.
In the case of `O=C1N(c2ccc(OCC(F)(F)F)cc2)CC[C@]12CC[C@@](O)(COCCC(F)(F)F)CC2` [Example 277, (5α,8α)-8-Hydroxy-2-[4-(2,2,2-trifluoro-ethoxy)-phenyl]-8-(3,3,3-trifluoro-propoxymethyl)-2-aza-spiro[4.5]decan-1-one] it was 40 nM; in that of `CC#C[C@]1(O)CC[C@]2(CCN(c3ccc(OCC(F)(F)F)cc3)C2=O)CC1` [Example 111, (5α,8α)-8-Hydroxy-8-prop-1-ynyl-2-[4-(2,2,2-trifluoro-ethoxy)phenyl]-2-aza-spiro[4.5]decan-1-one], 100 nM.
In the case of `CCC[C@]1(O)CC[C@]2(CCN(c3ccc(C(C)(C)COC)cc3)C2=O)CC1` [Example 132, (5α,8α)-8-Hydroxy-2-[4-(2-methoxy-1,1-dimethyl-ethyl)-phenyl]-8-propyl-2-aza-spiro[4.5]decan-1-one] it was 20 nM; in that of `O=C1N(c2ccc(OCC(F)(F)F)nc2)CC[C@]12CC[C@@](O)(COCC(F)(F)F)CC2` [Example 279, (5α,8α)-8-Hydroxy-8-(2,2,2-trifluoro-ethoxymethyl)-2-[6-(2,2,2-trifluoro-ethoxy)-pyridin-3-yl]-2-aza-spiro[4.5]decan-1-one], 20 nM.
The figure for `CCOC[C@]1(O)CC[C@]2(CCN(c3ccc(O[C@@H](C)C(F)(F)F)nc3)C2=O)CC1` [Example 249, (5α,8α)-8-Ethoxymethyl-8-hydroxy-2-[6-((S)-2,2,2-trifluoro-1-methyl-ethoxy)-pyridin-3-yl]-2-aza-spiro[4.5]decan-1-one] is 20 nM; for `O=C1N(c2ccc(OCC(F)(F)F)cc2)CC[C@]12CC[C@@](O)(COc1ccc(F)cc1)CC2` [Example 263, (5α,8α)-8-(4-Fluoro-phenoxymethyl)-8-hydroxy-2-[4-(2,2,2-trifluoro-ethoxy)-phenyl]-2-aza-spiro[4.5]decan-1-one] it is 20 nM.
Regarding `CC(C)Oc1ccc(N2CC[C@]3(CC[C@@](O)(c4c(Br)nnn4C)CC3)C2=O)cc1` [Example 212, (5α,8α)-8-(5-Bromo-3-methyl-3H-[1,2,3]triazol-4-yl)-8-hydroxy-2-(4-isopropoxy-phenyl)-2-aza-spiro[4.5]decan-1-one], the IC50 amounted to 10 nM.
The figure for `Cc1cc(C[C@]2(O)CC[C@]3(CCN(c4ccc(OC(C)C)cc4)C3=O)CC2)no1` [Example 220] is 20 nM.
Regarding `COC[C@]1(O)CC[C@]2(CCN(c3ccc(C4CC4)cc3)C2=O)CC1` [Example 223, (5α,8α)-2-(4-Cyclopropyl-phenyl)-8-hydroxy-8-methoxymethyl-2-aza-spiro[4.5]decan-1-one], the IC50 turned out to be 50 nM.
In the case of `C[C@H](Oc1ccc(N2CC[C@]3(CC[C@@](O)(COCC(F)F)CC3)C2=O)cn1)C(F)(F)F` [Example 297, (5α,8α)-8-(2,2-Difluoro-ethoxymethyl)-8-hydroxy-2-[6-((S)-2,2,2-trifluoro-1-methyl-ethoxy)-pyridin-3-yl]-2-aza-spiro[4.5]decan-1-one] it was 20 nM; in that of `O=C1N(c2ccc(OCC(F)(F)F)nc2)CC[C@]12CC[C@@](O)(C(F)(F)F)CC2` [Example 178, (5α,8α)-8-Hydroxy-2-[6-(2,2,2-trifluoro-ethoxy)-pyridin-3-yl]-8-trifluoromethyl-2-aza-spiro[4.5]decan-1-one], 150 nM; in that of `CCc1ccc(N2CC[C@]3(CC[C@@H](OC(=O)Nc4ccccc4)CC3)C2=O)cc1` [Example 8, Phenyl-carbamic acid [(5α,8β)-2-(4-ethyl-phenyl)-1-oxo-2-aza-spiro[4.5]dec-8-yl]ester], 270 nM.
Consider `COC[C@]1(O)CC[C@]2(CCN(c3ccc(O[C@H](C)C(F)(F)F)cc3)C2=O)CC1` [Example 147, (5α,8α)-8-Hydroxy-8-(methoxymethyl)-2-[4-((R)-2,2,2-trifluoro-1-methyl-ethoxy)-phenyl]-2-aza-spiro[4.5]decan-1-one], for which the IC50 stood at 30 nM.
In the case of `CC(C)CS(=O)(=O)C[C@]1(O)CC[C@]2(CCN(c3ccc(C(C)(C)C)cc3)C2=O)CC1` [Example 332, (5α,8α)-2-(4-tert-Butyl-phenyl)-8-hydroxy-8-(2-methyl-propane-1-sulfonylmethyl)-2-aza-spiro[4.5]decan-1-one] it was 7 nM; in that of `C[C@@H](Oc1ccc(N2CC[C@]3(CC[C@@](O)(C4CC4)CC3)C2=O)cn1)C(F)(F)F` [Example 179, (5α,8α)-8-Cyclopropyl-8-hydroxy-2-[6-((R)-2,2,2-trifluoro-1-methyl-ethoxy)-pyridin-3-yl]-2-aza-spiro[4.5]decan-1-one], 30 nM; in that of `O=C1N(c2ccc(OC(F)(F)F)cc2)CC[C@]12CC[C@@H](O)CC2` [Example 1, (5α,8β)-8-Hydroxy-2-(4-trifluoromethoxy-phenyl)-2-aza-spiro[4.5]decan-1-one], 470 nM.
Regarding `O=C1N(c2ccc(C3CC3)cc2)CC[C@]12CC[C@@](O)(COCC(F)(F)F)CC2` [Example 289, (5α,8α)-2-(4-Cyclopropyl-phenyl)-8-hydroxy-8-(2,2,2-trifluoro-ethoxymethyl)-2-aza-spiro[4.5]decan-1-one], the IC50 was found to be 20 nM.
The figure for `CCc1ccc(CCN2CC[C@]3(CC[C@@](O)(COC(C)C)CC3)C2=O)cc1` [Example 375, (5α,8α)-2-[2-(4-Ethyl-phenyl)-ethyl]-8-hydroxy-8-isopropoxymethyl-2-aza-spiro[4.5]decan-1-one] is 14.2 nM.
The figure for `CCC[C@]1(O)CC[C@]2(CCN(c3ccc(OS(=O)(=O)C4CC4)cc3)C2=O)CC1` [Example 182, 4-((5α,8α)-8-hydroxy-1-oxo-8-propyl-2-aza-spiro[4.5]decan-2-yl)phenyl cyclopropanesulfonate] is 30 nM.
In the case of `CC(C)c1ccc(N2CC[C@]3(CC[C@@](O)(COCC(F)(F)F)CC3)C2=O)cc1` [Example 216, (5α,8α)-8-hydroxy-2-(4-isopropylphenyl)-8-((2,2,2-trifluoroethoxy)methyl)-2-aza-spiro[4.5]decan-1-one] it was 10 nM.
As to `CCCOC[C@]1(O)CC[C@]2(CCN(c3ccc(O[C@@H](C)C(F)(F)F)cc3)C2=O)CC1` [Example 269, (5α,8α)-8-Hydroxy-8-propoxymethyl-2-[4-((S)-2,2,2-trifluoro-1-methyl-ethoxy)-phenyl]-2-aza-spiro[4.5]decan-1-one], the IC50 came to 10 nM.
In the case of `C[C@]1(O)CC[C@@]2(CCN(c3ccc(OCC(F)(F)F)cc3)C2=O)CC1` [Example 87, (5α,8β)-8-Hydroxy-8-methyl-2-[4-(2,2,2-trifluoro-ethoxy)-phenyl]-2-aza-spiro[4.5]decan-1-one], the IC50 was 3820 nM.
In the case of `C[C@@H](Oc1ccc(N2CC[C@]3(CC[C@@](O)(C(F)(F)F)CC3)C2=O)cc1)C(F)(F)F` [Example 177b, (5α,8α)-8-Hydroxy-8-trifluoromethyl-2-[4-((R)-2,2,2-trifluoro-1-methyl-ethoxy)-phenyl]-2-aza-spiro[4.5]decan-1-one] it was 40 nM; in that of `CCOC[C@]1(O)CC[C@@]2(CCN(c3ccc(O[C@H](C)C(F)(F)F)cc3)C2=O)CC1` [Example 252, (5α,8β)-8-Ethoxymethyl-8-hydroxy-2-[4-((R)-2,2,2-trifluoro-1-methyl-ethoxy)-phenyl]-2-aza-spiro[4.5]decan-1-one], 230 nM; in that of `CC(OC[C@]1(O)CC[C@]2(CCN(c3ccc(OCC(F)(F)F)cc3)C2=O)CC1)C(F)(F)F` (stereo partly drawn) [Example 292, (5α,8α)-8-Hydroxy-2-[4-(2,2,2-trifluoro-ethoxy)-phenyl]-8-(2,2,2-trifluoro-1-methyl-ethoxymethyl)-2-aza-spiro[4.5]decan-1-one], 10 nM.
